Measured values as given in US11505560B2, “Heterobifunctional compounds with improved specificity” (DANA-FARBER CANCER INSTITUTE, INC., priority 2017, dated 2022).
Entries after “also recorded” stand apart in the source; their conditions may differ. One block for each compound: values may come before it.

Columns and labels:
[1] = tested on: BRD2BD1, BRD2BD2, BRD3BD1, BRD3BD2, BRD4BD1, BRD4BD2 GFP constructs; experiment: Cellular imaging-based degradation assay (bromodomain-GFP with mCherry reporter); format: cell-based, human
Experimental: Cells stably expressing bromodomain-GFP with mCherry reporter were seeded at 30-50% confluency in 384 well plates (3764, Corning) with 50 μL FluoroBrite DMEM media (Gibco, A18967) containing 10% FBS per well a day before compound treatment. Compounds (see Figure legends) were dispensed using D300e Digital Dispenser (HP) normalized to 0.5% DMSO and incubated with cells for 5 h. The assay plate was imaged immediately using Acumen eX3/HCl (TTPLabtech) High Content Imager with 488 nm and 561 nm lasers in 2 μm×1 μm grid per well format. The resulting images were analyzed using CellProfiler™ (Carpenter, et al., GenomeBiology 7:r100 (2006)). A series of image analysis steps (‘image analysis pipeline’) was constructed.
The CellProfiler™ pipeline steps are briefly outlined here. First, the red and green channels were aligned and cropped to target the middle of each well (to avoid analysis of heavily clumped cells at the edges), and a background illumination function was calculated for both red and green channels of each well individually and subtracted to correct for illumination variations across the 384-well plate from various sources of error. An additional step was then applied to the green channel to suppress the analysis of large auto fluorescent artifacts and enhance the analysis of cell specific fluorescence by way of selecting for objects under a given size, 30 A.U., and with a given shape, speckles. mCherry-positive cells were then identified in the red channel filtering for objects between 8-60 pixels in diameter and using intensity to distinguish between clumped objects. The green channel was then segmented into GFP positive and negative areas and objects were labeled as GFP positive if at least 40% of it overlapped with a GFP positive area. The fraction of GFP-positive cells/mCherry-positive cells (GFP/mCherry ratio) in each well was then calculated, and the green and red images were rescaled for visualization. The GFP/mCherry ratio was normalized to DMSO and analyzed in GraphPad Prism 7.

[2] = tested on: BRD2BD1, BRD2BD2, BRD3BD1, BRD3BD2, BRD4BD1, BRD4BD2 EGFP constructs; experiment: EGFP/mCherry reporter assay on individual BET bromodomains (flow cytometry); format: cell-based, human; conditions: for selectivity of degradation across BET bromodomains (in words): BRD2/3/4 BD1 and BD2
Experimental: (§1) IKZF1A, BRD2BD1, BRD2BD2, BRD3BD1, BRD3BD2, BRD4BD1, and BRD4BD2 were subcloned into mammalian pcDNA5/FRT Vector (Ampicillin and Hygromycin B resistant) modified to contain MCS-eGFP-P2A-mCherry. […] Following 2-3 passage cycle FACS (FACSAria II, BD) was used to enrich for cells expressing eGFP and mCherry.
(§2) Signal from 5000 cells per well was acquired in singlicate or duplicate and the eGFP and mCherry florescence monitored. Data was analyzed using FlowJo (FlowJo, LCC). […] The eGFP protein abundance relative to mCherry was then quantified as a ten-fold amplified ratio for each individual cell using the formula: 10×eGFP/mCherry. The median of the ratio was then calculated per set, normalized to the median of the DMSO ratio, and is denoted as relative abundance. Standard deviation is calculated from four replicates (n=4) unless described otherwise.

[3] = target: T1, IKZF1Δ-CRBN complex formation (Homo sapiens, UniProt Q13422+Q96SW2, DEL197-239); experiment: CRBN-IKZF1Δ binding assay (TR-FRET); conditions: IKZF1Δ and DDB1ΔB-CRBN
T1 construct: made in house; host or cells: Trichoplusia ni High-Five insect cells (baculovirus)
Experimental: Compounds in CRBN mutants dimerization assay were dispensed as described above into 200 nM His6-DDB1-His6-CRBNmutants or 200 nM His6-DDB1ΔB-His6-CRBNWT, 100 nM BRD4BD1-BODIPY-SpyCatcher and 2 nM terbium-anti-HIS Ab (Invitrogen) in a buffer containing 50 mM Tris pH 7.5, 100 mM NaCl, 0.1% Pluronic F-68 solution (Sigma) and 2% DMSO (4% DMSO final). Before TR-FRET measurements were conducted, the reactions were incubated for 15 min at RT. […] The TR-FRET signal of each data point was extracted by calculating the 520/490 nm ratio. […] The peak height of TR-FRET dBET dose response data was calculated in GraphPad Prism 7 using Area Under Curve analysis for three independent replicates (n=3) and the mean peak height and standard deviation calculated.
The standard deviation in IKZF1A TR-FRET compound titrations was calculated from three biological replicates (n=3) as an average of 5 technical replicates per well per experiment, or as an average of 5 technical replicates of single experiment for unlabelled protein titrations.

[4] = target: T2, IKZF1Δ-EGFP fusion protein (Homo sapiens, UniProt Q13422+Q96SW2, DEL197-239); experiment: IKZF1Δ-EGFP fusion protein degradation reporter assay (flow cytometry); format: cell-based; conditions: HEK293T cells
T2 construct: expressed in transfected cells; HEK293T cells
Experimental: as §1, §2

[5] = target: T3, BRD4BD1-EGFP (Homo sapiens, UniProt O60885+Q96SW2); experiment: BRD4BD1-EGFP/mCherry reporter cellular degradation assay (flow cytometry); format: cell-based; conditions: 5 h treatment
T3 construct: expressed in transfected cells
Experimental: as §1, with “Reporter cells that stably express BRD4BD1-EGFP followed by a P2A splice site separated mCherry, were treated with increasing concentrations of dBET molecules (FIG. 3A-FIG. 3F). […] IKZF1A,” for “IKZF1A,”
as §2

[6] = target: T4, endogenous BRD4 in HEK293T cells (Homo sapiens, UniProt O60885); experiment: Immunoblot for cellular degradation of endogenous BRD4; format: cell-based; conditions: 5 hours
T4 construct: retains activity on endogenous full length BRD4; endogenous in cells; host or cells: HEK293T
Experimental: (§3) HEK293T cells were treated with increasing concentrations of ZXH-03-26.

[7] = tested on: BRD2 and BRD3 in HEK293T cells; experiment: Immunoblot for cellular degradation of BRD2 and BRD3; format: cell-based, human
Experimental: as §3

[8] = 5 h incubation, cellular imaging

T1 sequence (Q96SW2 whole entry, stated change not applied): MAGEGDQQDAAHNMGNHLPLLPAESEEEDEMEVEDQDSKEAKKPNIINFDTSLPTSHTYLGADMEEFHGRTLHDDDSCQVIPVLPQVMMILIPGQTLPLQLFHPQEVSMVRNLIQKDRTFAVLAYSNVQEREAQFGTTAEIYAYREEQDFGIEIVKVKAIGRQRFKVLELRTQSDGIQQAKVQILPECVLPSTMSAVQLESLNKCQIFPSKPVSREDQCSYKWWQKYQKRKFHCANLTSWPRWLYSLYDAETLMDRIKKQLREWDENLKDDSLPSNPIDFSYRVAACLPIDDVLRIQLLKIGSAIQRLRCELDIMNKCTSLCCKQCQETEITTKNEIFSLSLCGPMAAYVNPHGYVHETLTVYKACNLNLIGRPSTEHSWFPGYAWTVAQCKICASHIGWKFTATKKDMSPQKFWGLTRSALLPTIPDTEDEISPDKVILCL
T1 sequence (Q13422 with tags, fused parts or gaps DEL197-239 limits assumed): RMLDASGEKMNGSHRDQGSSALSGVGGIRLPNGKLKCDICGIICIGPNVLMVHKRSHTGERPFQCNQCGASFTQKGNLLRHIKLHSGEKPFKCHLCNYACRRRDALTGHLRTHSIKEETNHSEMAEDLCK

SMILES: COC(=O)C[C@@H]1N=C(c2ccc(Cl)cc2)c2c(sc(C(=O)NCCCCCNc3cc(F)cc4c3CN(C3CCC(=O)NC3=O)C4=O)c2C)-n2c(C)nnc21 (stereo partly drawn) [BJG-01-174, Methyl 2-((6S)-4-(4-chlorophenyl)-2-((5-((2-(2,6-dioxopiperidin-3-yl)-6-fluoro-1-oxoisoindolin-4-yl)amino)pentyl)carbamoyl)-3,9-dimethyl-6H-thieno[3,2-f][1,2,4]triazolo[4,3-a][1,4]diazepin-6-yl)acetate]
bromodomain degradation activity and selectivity (in words) [1, 8]: inactive degrader

SMILES: COC(=O)C[C@@H]1N=C(c2ccc(Cl)cc2)c2c(sc(C(=O)NCCCCCOc3cccc4c3C(=O)N(C3CCC(=O)NC3=O)C4=O)c2C)-n2c(C)nnc21 (stereo partly drawn) [BJG-02-030, Methyl 2-((6S)-4-(4-chlorophenyl)-2-((5-((2-(2,6-dioxopiperidin-3-yl)-1,3-dioxoisoindolin-4-yl)oxy)pentyl)carbamoyl)-3,9-dimethyl-6H-thieno[3,2-f][1,2,4]triazolo[4,3-a][1,4]diazepin-6-yl)acetate]
bromodomain degradation activity and selectivity (in words) [1, 8]: maintained BRD4BD1 degradation selectivity, with reduced activity

SMILES: COC(=O)C[C@@H]1N=C(c2ccc(Cl)cc2)c2c(sc(C(=O)NCCCCCNc3ccc(F)c4c3C(=O)N(C3CCC(=O)NC3=O)C4=O)c2C)-n2c(C)nnc21 (stereo partly drawn) [BJG-02-119, Methyl 2-((6S)-4-(4-chlorophenyl)-2-((5-((2-(2,6-dioxopiperidin-3-yl)-7-fluoro-1,3-dioxoisoindolin-4-yl)amino)pentyl)carbamoyl)-3,9-dimethyl-6H-thieno[3,2f][1,2,4]triazolo[4,3-a][1,4]diazepin-6-yl)acetate]
bromodomain degradation activity and selectivity (in words) [1, 8]: maintaining selectivity, with reduced activity as compared to ZXH-3-26

SMILES: Cc1ncsc1-c1ccc(CNC(=O)[C@@H]2C[C@@H](O)CN2C(=O)[C@@H](NC(=O)COCCOCCOCCNC(=O)C[C@@H]2N=C(c3ccc(Cl)cc3)c3c(sc(C)c3C)-n3c(C)nnc32)C(C)(C)C)cc1 [MZ1, reference compound]
selectivity of degradation across BET bromodomains (in words) [2]: activity on most bromodomains

SMILES: Cc1sc2c(c1C)C(c1ccc(Cl)cc1)=N[C@@H](CC(=O)NCCOc1cccc3c1C(=O)N(C1CCC(=O)NC1=O)C3=O)c1nnc(C)n1-2 (stereo partly shown) [ZXH-2-42]
induction of IKZF1-CRBN complex formation / IKZF1 binding (in words) [3]: greatly reduced compared to their nitrogen analogs
bromodomain degradation activity and selectivity (in words) [1, 8]: significantly reduced activity

SMILES: COC(=O)C[C@@H]1N=C(c2ccc(Cl)cc2)c2c(sc(C(=O)NCCCCCCCCOc3cccc4c3C(=O)N(C3CCC(=O)NC3=O)C4=O)c2C)-n2c(C)nnc21 (stereo partly shown) [ZXH-2-43]
cellular IKZF1 degradation (in words) [4]: reduced IKZF1 binding and IKZF1 degradation
induction of IKZF1-CRBN complex formation / IKZF1 binding (in words) [3]: greatly reduced compared to their nitrogen analogs; also recorded: reduced IKZF1 binding
degradation of BRD2/3/4 at low concentration (in words) ([1]; 2.6 nM concentration, 5 h): significant degradation of BRD2/3/4
bromodomain degradation activity and selectivity (in words) [1, 8]: potent degradation of bromodomains

SMILES: COC(=O)C[C@@H]1N=C(c2ccc(Cl)cc2)c2c(sc(C(=O)NCCCCCCCCOc3ccc4c(c3)C(=O)N(C3CCC(=O)NC3=O)C4=O)c2C)-n2c(C)nnc21 (stereo partly shown) [ZXH-2-45]
cellular IKZF1 degradation (in words) [4]: reduced IKZF1 binding and IKZF1 degradation
induction of IKZF1-CRBN complex formation / IKZF1 binding (in words) [3]: greatly reduced compared to their nitrogen analogs; also recorded: reduced IKZF1 binding
bromodomain degradation activity and selectivity (in words) [1, 8]: potent degradation of bromodomains

degradation of BRD4BD1 (in words) [5]: active on BRD4BD1
SMILES: COC(=O)C[C@@H]1N=C(c2ccc(Cl)cc2)c2c(sc(C(=O)NCCCNc3cccc4c3C(=O)N(C3CCC(=O)NC3=O)C4=O)c2C)-n2c(C)nnc21 (stereo partly shown) [ZXH-2-147]
selectivity of degradation across BET bromodomains (in words) [2]: selectively targets BRD4 for degradation and spares BRD2 and BRD3; also recorded: selective degradation of BRD4

SMILES: COC(=O)C[C@@H]1N=C(c2ccc(Cl)cc2)c2c(sc(C(=O)NCCCCNc3cccc4c3C(=O)N(C3CCC(=O)NC3=O)C4=O)c2C)-n2c(C)nnc21 (stereo partly shown) [ZXH-2-184]
selectivity of degradation across BET bromodomains (in words) [2]: selectively targets BRD4 for degradation and spares BRD2 and BRD3; also recorded: selective degradation of BRD4

degradation of BRD4BD1 (in words) [5]: active on BRD4BD1
DC50 ([5]; GFP/mCherry ratio, read-out: DC50/5h (half-maximal degradation after 5 hours of treatment), BRD4BD1): ~5 nM
SMILES: COC(=O)C[C@@H]1N=C(c2ccc(Cl)cc2)c2c(sc(C(=O)NCCCCCNc3cccc4c3C(=O)N(C3CCC(=O)NC3=O)C4=O)c2C)-n2c(C)nnc21 (stereo partly shown) [ZXH-03-26]
concentrations at which degradation of BRD2 or 3 is spared [2]: > 10 µM
selectivity of degradation across BET bromodomains (in words) [2]: activity exclusively on the first bromodomain of BRD4; also recorded: selectively targets BRD4 for degradation and spares BRD2 and BRD3
degradation of endogenous BRD4 (in words) [6]: degrades endogenous BRD4 with comparable efficacy compared to the best pan-BET degrader dBET6
degradation of BRD2 and BRD3 (in words) [7]: inactive on BRD2 and BRD3

SMILES: COC(=O)C[C@@H]1N=C(c2ccc(Cl)cc2)c2c(sc(C(=O)NCCNc3cccc4c3C(=O)N(C3CCC(=O)NC3=O)C4=O)c2C)-n2c(C)nnc21 (stereo partly shown) [ZXH-3-27]
selectivity of degradation across BET bromodomains (in words) [2]: lack of selective degradation of BRD4

SMILES: COC(=O)C[C@@H]1N=C(c2ccc(Cl)cc2)c2c(sc(C(=O)NCCNc3ccc4c(c3)C(=O)N(C3CCC(=O)NC3=O)C4=O)c2C)-n2c(C)nnc21 (stereo partly shown) [ZXH-3-28]
bromodomain degradation activity and selectivity (in words) [1, 8]: inactive molecule

SMILES: COC(=O)C[C@@H]1N=C(c2ccc(Cl)cc2)c2c(sc(C(=O)NCCCc3cccc4c3C(=O)N(C3CCC(=O)NC3=O)C4=O)c2C)-n2c(C)nnc21 (stereo partly shown) [ZXH-3-52]
BRD3/BRD4 selective degradation observed [1, 8]: BRD3/BRD4 selective degraders

SMILES: COC(=O)C[C@@H]1N=C(c2ccc(Cl)cc2)c2c(sc(C(=O)NCCCCCCc3cccc4c3C(=O)N(C3CCC(=O)NC3=O)C4=O)c2C)-n2c(C)nnc21 (stereo partly shown) [ZXH-3-82]
selectivity of degradation across BET bromodomains (in words) [2]: selectively targets BRD4 for degradation and spares BRD2 and BRD3

cellular IKZF1 degradation (in words) [4]: equipotent to lenalidomide
induction of IKZF1-CRBN complex formation / IKZF1 binding (in words) [3]: pronounced complex formation
SMILES: COC(=O)C[C@@H]1N=C(c2ccc(Cl)cc2)c2c(sc(C(=O)NCCCCCCCCNc3ccc4c(c3)C(=O)N(C3CCC(=O)NC3=O)C4=O)c2C)-n2c(C)nnc21 (stereo partly shown) [dBET72, reference compound]
